Where “and” joins values, the source holds several entries; their conditions need not be identical. Equal values may be shown once.
Legend:
primary mouse B cells = assay: B cell activation after anti-IgM stimulation, CD86 staining; assay type: cell-based
Procedure: Lastly, we assessed the ability of the PROTACs to abrogate the activation of primary mouse B cells in response to B cell receptor stimulation. For this purpose, primary B cells were treated with anti-IgM for 18 h,[36],[37] followed by staining for CD86, a B cell activation surface marker (Figure 8; Supporting Figure 7). […]
supplemented with 300 mM imidazole). The His tag was cleaved by the addition of TEV protease with concomitant dialysis overnight into cleavage buffer (50 mM Tris, pH 8.0, 0.5 mM EDTA, 1 mM DTT) at 4°C. The resulting soluble protein was passed ov er Ni -NTA beads to remove the protease and purified further by gel filtration on a HiLoad_16/60_Superdex_75 (GE Healthcare) column equilibrated with 20 mM Tris, pH 8.0, 50 mM NaCl, 1 mM DTT. The pure protein was then flash-frozen in liquid nitrogen and stored at −80°C.
C57BL/6 mice were purchased from Harlan (Rehovot, Israel) and maintained in a pathogen-free facility, experiments were carried on 8-12 weeks old male mice. All exp eriments with mice were approved by the Weizmann Institute Animal Care and Use Committee.
Splenic cells from C57BL/6 mice were isolated by forcing spleen tissue through mesh into PBS containing 2% fetal calf serum and 1 mM EDTA and red blood cells were depleted by lysis buffer. Cells were cultured in 96-well U-b ottom dishes (1x10^6 cells/m L in RPMI 10% […]
nM, 10 nM, 1 nM, 0.1 nM) for 24 hours at 37° C in 5% humidified CO2 incubator. Following a 24 hours incubation, cells were stimulated with anti-IgM overnight (5 µg/mL, Sigma-Aldrich). Subsequently, cells were stained with anti-B220 (clone RA3-6B2, Biolegend) and anti-CD86 (clone GL-1, Biolegend) antibodies for 30 minutes at 4°C. Single cell suspensions were analyzed by a flow cytometer (CytoFlex, Beckman Coulter).
Cells were analyzed by intensity based, label-free mass spectrometry based proteomics.
Sample preparation: 106 Ramos cells were treated in four replicates with either compound or DMSO for 24 hours. Cells were then washed twice by centrifuge at 200 rcf, 4°C for 5 minutes, removing the supernatant and washed with ice cold PBS. Samp les were then centrifuged at 200 rcf, 4°C for 5 minutes, then supernatant was removed and samples were frozen at -80°C.
Samples were dispersed in 75 µl of 50 mM ammonium bicarbonate, and transferred to 1.8 mL glass vials. 75 µl of 10% SDS in 50 mM ammonium bicarbonate were added and the samples were heated to 96° C for 6 minutes. The samples were sonicated thoroughly in a sonication bath until the DNA was sheared as indicated by reduction in viscosity to level enabling easy pipettation. Total protein concentration was estimated using BCA as say and 30 µg from each sample was taken for the experiment.

BTK = BTK (Homo sapiens, UniProt Q06187); assay: BTK degradation in Mino cells, dose-response Western blot; assay type: cell-based; set-up: endogenous in cells; host or cells: Mino (ATCC CRL-3000), Ramos (ATCC CRL-1596), K562 (NCI-60); conditions: 24 h; for Dmax: MINO, read-out: Dmax (maximal degradation); for DC50: second-order polynomial fit
Procedure: We evaluated the ability of the compounds to induce degradation of BTK in human cell lines. We incubated Mino cells with the compounds and followed BTK levels after 24 h by Western blot (Figure 2, Supporting Figure 2). […] The irreversible acrylamides IR-1 and IR-2 and the cyanoacrylamide RC-3 followed closely with DC50’s under 10 nM and Dmax near 90%. […] We conducted metabolomics studies to estimate if cellular penetration and stability may contribute to the relative potencies (Supporting Table 2). NC-1 and RC-3 reached an effective concentration that was ∼2 times higher than IR-2 and ∼10 times higher than RC-2. Therefore, the lower potency of RC-2 can at least in part be explained by lower permeability or stability.
Figure 2 Efficient BTK degradation in cells. (A) Western blot evaluation of BTK levels in Mino cells in response to various concentrations of RC-2, IR-2, NC-1, and RC-3, after 24 h of incubation. (B) Quantification of BTK levels in (A) by normalization to the β-actin house-keeping gene in Mino cells. DC50 and Dmax were calculated by fitting the data to a second-order polynomial using Prism software. (C) Summary of the DC50 and Dmax values for the PROTACs in Mino cells described in (A) and Supporting Figure 2. TEXT PRINTED IN THE PICTURE: (C) NC-1: DC50 (nM): 2.2; Dmax (%): 97 | (C) IR-1: DC50 (nM): 8.6; Dmax (%): 91 | (C) IR-2: DC50 (nM): 1.9; Dmax (%): 88 | (C) RC-1: DC50 (nM): 10; Dmax (%): 68 | (C) RC-2: DC50 (nM): 35; Dmax (%): 66 | (C) RC-3: DC50 (nM): 6; Dmax (%): 85
Ramos (ATCC, CRL-1596), Mino (ATCC, CRL-3000), or K562 (NCI-60) cell lines were counted and diluted to 10^6 cell/mL, using 1 mL per well in a 24-well plate, and U2OS (ATCC HTB-96) cells overexpressing human BTK WT or C481S mutant were grown using 2 mL in a six-well plate (see Supporting Information). Cells were incubated with 1% DMSO or compound in indicated concentrations for 24 h unless indicated differently, or cells were left untreated. Lysates were prepared as previously described,[29] and samples were measured for total protein quantification by bicinchoninic acid (BCA) assay (#23225 ThermoFisher Scientific) supplemented with 4× loading buffer including 20 mM DTT, heated to 70 °C for 10 min, loaded into 4% SDS-PAGE gel, run for 45 min at 140 mV, then transferred into a nitrocellulose membrane (Biorad) using a Trans-Blot Turbo transfer system (Biorad). The membrane was stained with Ponceau (Sigma) to validate transfer for 10 min in gentle agitation then destained for 1 h with MQ water. The membrane was blocked with Licor blocking buffer (LIC927-70001) for 1 h, washed three times for 5 min with TBS-T, incubated with primary antibody BTK (D3H5) rabbit mAb (CST; 8547 S) overnight (16 h) at 4 °C, washed three times for 5 min with TBS-T, and incubated with primary antibody against β-actin (CST; 3700) for 1 h at 25 °C. Membrane was washed three times for 5 min with TBS-T, incubated with fluorescent secondary antibodies anti-mouse IgG Alexa Fluor 647 (CST: 4410S) and anti-rabbit-IgG IRDye 800(LICOR: 926-32211) for 1 h, then washed three times for 5 min with TBS-T, dried, and immediately imaged and analyzed using Licor Odyssey CLx. Prism (GraphPad) software was used to calculate degradation levels. We used second-order polynomial fits to estimate DC50 and Dmax values.

[1] = anti-IgM stimulation, PROTAC 24 h

BTK, sequence (Q06187 whole entry): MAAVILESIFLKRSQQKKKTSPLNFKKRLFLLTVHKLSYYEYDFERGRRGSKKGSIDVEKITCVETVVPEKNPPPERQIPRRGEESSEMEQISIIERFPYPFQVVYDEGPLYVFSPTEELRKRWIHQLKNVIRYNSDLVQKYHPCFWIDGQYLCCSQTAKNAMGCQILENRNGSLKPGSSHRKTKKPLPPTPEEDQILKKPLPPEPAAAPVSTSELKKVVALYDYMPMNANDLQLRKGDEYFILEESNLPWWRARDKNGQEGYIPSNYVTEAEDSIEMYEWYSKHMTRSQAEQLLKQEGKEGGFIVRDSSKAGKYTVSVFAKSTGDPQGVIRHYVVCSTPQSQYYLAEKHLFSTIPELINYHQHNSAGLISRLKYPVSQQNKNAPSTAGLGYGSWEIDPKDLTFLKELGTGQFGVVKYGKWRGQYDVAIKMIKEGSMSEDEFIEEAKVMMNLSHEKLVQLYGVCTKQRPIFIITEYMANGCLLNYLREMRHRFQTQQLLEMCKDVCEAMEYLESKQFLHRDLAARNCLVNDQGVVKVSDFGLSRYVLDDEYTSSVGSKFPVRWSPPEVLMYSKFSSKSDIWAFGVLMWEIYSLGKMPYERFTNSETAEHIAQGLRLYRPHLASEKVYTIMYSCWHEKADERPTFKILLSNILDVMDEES

Row | SMILES | inhibition of B cell activation (CD86) (primary mouse B cells; [1]) | inhibition of B cell activation compared to ibrutinib (primary mouse B cells; [1]) | Dmax (maximal degradation) (BTK) [%] | Dmax (BTK) [%] | inhibition of B cell activation compared to ibrutinib (primary mouse B cells; at 1 μM) | DC50 (BTK)
1 | Nc1ncnc2c1c(-c1ccc(Oc3ccccc3)cc1)nn2C1CCCN(C(=O)C=CCCCCOCCOCCOCCOCCOc2cccc3c2C(=O)N(C2CCC(=O)NC2=O)C3=O)C1 (centres unmarked) [IR-2] | strongest effect | superior inhibition compared to ibrutinib | 88 | ~90 |  | 
2 | CC(C)(C=C(C#N)C(=O)N1CCCC(n2nc(-c3ccc(Oc4ccccc4)cc3)c3c(N)ncnc32)C1)CCCOCCOCCOCCOCCOc1cccc2c1C(=O)N(C1CCC(=O)NC1=O)C2=O (centres unmarked) [RC-3] |  |  | 85 | ~90 | superior activity to ibrutinib | < 10 nM and 6 nM
3 | N#CC(=CCCCCOCCOCCOCCOCCOc1cccc2c1C(=O)N(C1CCC(=O)NC1=O)C2=O)C(=O)N1CCCC(n2nc(-c3ccc(Oc4ccccc4)cc3)c3c(N)ncnc32)C1 (centres unmarked) [RC-2] |  |  |  | 66 | superior activity to ibrutinib | 
4 | Nc1ncnc2c1c(-c1ccc(Oc3ccccc3)cc1)nn2C1CCCN(C(=O)CCCCCCOCCOCCOCCOCCOc2cccc3c2C(=O)N(C2CCC(=O)NC2=O)C3=O)C1 (centres unmarked) [NC-1] | strongest effect | superior inhibition compared to ibrutinib |  | 97 |  | 2.2 nM
5 | Nc1ncnc2c1c(-c1ccc(Oc3ccccc3)cc1)nn2C1CCCN(C(=O)C=CCOCCOCCOCCOCCOCCOc2cccc3c2C(=O)N(C2CCC(=O)NC2=O)C3=O)C1 (centres unmarked) [IR-1] |  |  | 91 | ~90 |  | < 10 nM and 8.6 nM

— PMC7349657, “Efficient Targeted Degradation via Reversible and Irreversible Covalent PROTACs” (Journal of the American Chemical Society, 2020)
